Data reported in US5215981A, “Polyether antibiotic MI215-NF3 substance, production process thereof, and agent for control of chicken coccidiosis” (Hokko Chemical Industry Co., Ltd., priority 1988, dated 1993).

System: Eimeria tenella
Assay: Anticoccidial activity in chicken inoculated with Eimeria tenella oocysts
Type: in vivo
Settings: for Rate (%) of relative body weight gain / Survival rate (%): 7 days after infection; for Lesion scores: cecum, 7th day after infection; for ACI (Anticoccidial Index): ACI=(relative weight gain+survival rate)-(lesion scores+oocyst scores)
Protocol: The activity of MI215-NF3 substance for controlling chicken coccidiosis was tested as summarized below.
1. Newly-hatched chicken (male) were preliminarily raised for 1 week, and […] chicken were used in the test.
2. The body weights of the chicken were individually measured at the beginning of the test. To make up each test group, ten chicken were selected and alloted in each group so as to minimize variations among the test groups.
3. Chicken were orally inoculated with 5×10^4 oocysts of Eimeria tenella per chick through a stomach probe tube.
4. After the oocyst inoculation, each chick was allowed to take ad libitum a feed which had been prepared by mixing a predetermined amount of MI215-NF3 substance (sodium salt) with a special feed containing no anticoccidial agent. Incidentally, the chicken were also allowed to drink water ad libitum.
5. Up to the 7th day after the oocyst inoculation, the number of oocysts in feces from each chick and the state of the feces were observed everyday.
6. Each chick was anatomized on the 7th day after the infection. Anatomical procedures were as follows.
1) The body weight of each chick was measured.
2) Each chick was sacrificed by dislocation of neck cervical fracture.
3) Each chick was subjected to celiotomy and the cecum was enucleated. The cecum was visually inspected for any lesions on both outer and inner walls of cecum.
4) The cecum thus inspected was individually disintegrated in a homogenizer, whereby a cecum suspension was prepared. The number of oocysts in the suspension was counted.
5) Based on the results of the above inspections, the value of ACI (Anticoccidial Index) was determined in accordance with the evaluation method proposed by Merck & Co., Inc., U.S.A., namely, by the following equation:
ACI=(rate (%) of relative body weight gain+survival rate (%) of
chick)-(lesion scores+oocyst scores)
Upon determination of the above ACI value, the "rate of weight gain" of the chicken in each group of chicken during the test period for estimation of the drug efficacy and the "rate of relative body weight gain" used for the calculation of ACI were evaluated in accordance with the following equations: […]
______________________________________
Rate (%) of body weight gain = [(mean body weight of
chicken at the end of the test - mean body
weight of the chicken at the beginning of
the test) .div. mean body weight of the chicken
at the beginning of the test] × 100.
Rate (%) of relative body weight gain =
[(rate of body weight gain of the treated group
or an infected but non-treated group) .div. rate
of body weight gain of a non-infected and non-
On the other hand, the term "lesion scores" means a value which is obtained by evaluating, in terms of indexes, the results of visual inspection of lesions on an enucleated cecum sample. The term "oocyst scores" means a value which is obtained by evaluating, in terms of indexes, the number of oocysts actually counted. Details of the procedure for the determination of ACI values are described, for example, in the literature compiled by Kiyoshi Tsunoda, "Chicken Coccidiosis", pp 95-101, Chikusan Shuppan Sha (May, 1983).

Row | SMILES | Oocyst scores (100 ppm in feed) | Rate (%) of relative body weight gain (100 ppm in feed) [%] | Survival rate (%) (100 ppm in feed) | Lesion scores (100 ppm in feed) | ACI (Anticoccidial Index) (100 ppm in feed) | Oocyst scores (50 ppm in feed) | Rate (%) of relative body weight gain (50 ppm in feed) [%] | Survival rate (%) (50 ppm in feed) | Lesion scores (50 ppm in feed) | ACI (Anticoccidial Index) (50 ppm in feed)
1 | CC[C@@]1([C@@H]2O[C@@H]([C@H]3O[C@@](O)(CO)[C@H](C)C[C@@H]3C)C[C@@H]2C)CC[C@H]([C@]2(C)CC[C@]3(C[C@H](O)[C@@H](C)[C@@H]([C@@H](C)[C@@H](OC)[C@H](C)C(=O)O)O3)O2)O1 [Monensin] | 20 | 96.13 | 100 | 32.0 | 144.1 |  |  |  |  | 
2 | CC[C@@H](C(=O)[C@@H](C)[C@@H](O)[C@H](C)[C@@H]1O[C@@H]([C@@H](CC)C(=O)O)CC[C@@H]1C)[C@H]1O[C@]2(C=C[C@@H](O)[C@]3(CC[C@@](C)([C@H]4CC[C@](O)(CC)[C@H](C)O4)O3)O2)[C@H](C)C[C@@H]1C [Salinomycin, salinomycin] |  |  |  |  |  | 10 | 71.13 | 100 | 34.0 | 127.1
